Laboratory results from PubChem BioAssay AID1348 (Sanford-Burnham Center for Chemical Genomics, 2008).
Active and inactive are the calls of the source.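 Rule for the calls: active = cell survival above 50% at 25 µM despite a drug that triggers cell death; inactive = the rest.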

Each compound was assayed on CSM14.1 staurosporine-induced death rescue, ATPlite, 24 h (assay: staurosporine death rescue in CSM14.1 cells – cell-based, undifferentiated CSM14.1, ATP luminescence, selectivity assay for ER stress death inhibitor project, SAR follow-up (AID 1348)). Conditions: at 25 µM; hits give high values.
For `COc1ccc(C2CC(=O)C3=C(C2)Nc2ccccc2NC3c2cccc(Oc3ccccc3)c2)cc1OC` (stereo unspecified), the survival was 11% (inactive).
In the case of `COc1ccc(C2CC(=O)C3=C(C2)Nc2ccccc2NC3c2cccc(C(F)(F)F)c2)cc1OC` (stereo unspecified), the survival is reported as 10% (inactive).
`COc1ccc(C2CC(=O)C3=C(C2)Nc2ccccc2NC3c2ccccc2C(F)(F)F)cc1OC` (stereo unspecified) was tested, and the survival was 6% (inactive).
For `CCOc1cc(C2Nc3ccccc3NC3=C2C(=O)CC(c2ccc(OC)cc2)C3)cc(Cl)c1O` (stereo unspecified), the survival was 9% (inactive).
In the case of `CSc1ccc(C2Nc3ccccc3NC3=C2C(=O)CC(c2ccccc2)C3)cc1` (stereo unspecified), the survival is reported as 8% (inactive).
For `O=C1CC(c2ccccc2)CC2=C1C(c1c(F)cccc1Cl)Nc1ccccc1N2` (stereo unspecified), the survival was 8% (inactive).
`COc1ccc(C2CC(=O)C3=C(C2)Nc2ccccc2NC3c2cc(C)ccc2C)cc1` (stereo unspecified) was tested, and the survival was 9% (inactive).
For `COc1ccc(C2CC(=O)C3=C(C2)Nc2ccccc2NC3c2cccc(Br)c2)cc1OC` (stereo unspecified), the survival was 10% (inactive).
In the case of `CCOc1cccc(C2Nc3ccccc3NC3=C2C(=O)CC(c2ccc(OC)cc2)C3)c1` (stereo unspecified), the survival is reported as 8% (inactive).
With `CCCOc1ccc(C2Nc3ccccc3NC3=C2C(=O)CC(c2ccc(OC)c(OC)c2)C3)cc1` (stereo unspecified) the survival was 12% (inactive).
In the case of `CC1(C)CC(=O)C2=C(C1)Nc1ccccc1NC2c1ccc(-c2ccccc2)cc1` (stereo unspecified), the survival is reported as 13% (inactive).
